Structures are written as SMILES.

Series [1] concerns A549 cells. Description: Intracellular uptake and release by CLSM in A549 cells. The conditions noted are these: 10 μg/mL DOX equivalents. The series is classed as cell-based, human. Here is the method:
(§1) A549 (cancer cells) and NIH3T3 (normal cells) cells were seeded at a density of 1.0×10^5 cells/well in an 8-well chamber of a Lab-Tek II chamber slide and preincubated for 24 h at 37° C. and 5% CO2. Serum-free DMEM containing free DOX and DOX-NPs at equivalent doses (10 μg/mL) was added to each well, followed by incubation for 30 min, 2 h and 4 h at 37° C. The cells were then rinsed with PBS, and fixed with 4% formaldehyde solution for 10 min. Cover glasses were then placed on glass slides. The cellular uptake and release behavior of DOX-encapsulated SS or thioester NPs were imaged by confocal laser scanning microscopy (CLSM) (Leica, England) at an excitation wavelength of 488 nm for DOX. Since DOX itself is fluorescent, it was used directly to investigate cellular uptake without additional fluorescent labeling in of the nanoparticles.

For series [2], the system named is A549 cells. Description: MTT cytotoxicity in A549 cells. It counts as cell-based, human. As to conditions: 24 h. Here is the method:
(§2) A549 and NIH3T3 cells (7500 cells/well) were seeded on 96-well plates and cultured in 200 μL of DMEM supplemented with 10% FBS, 1% antibiotics, and 1% L-glutamine for 24 h at 37° C. and 5% CO2. After incubation, various concentrations of DOX-encapsulated SS or thioester NPs and free DOX (1-50 μg/mL of DOX equivalents) dissolved in DMEM without supplements were added. After 24 h of incubation, cytotoxicity was determined using 3-[4,5-dimethylthiazol-2-yl]-[…] bromide dye (MTT dye, final concentration of 0.5 mg/mL) uptake at 540 nm on a microplate reader (Tecan group Ltd., Mannedorf, Switzerland).

In series [3] the test system is HeLa cells. As to the kind of experiment: MTT cytotoxicity in HeLa cells. The conditions noted are these: equal DOX concentrations. It counts as cell-based. Here is the method:
as §2, with “HeLa cells” for “A549 and NIH3T3 cells”, “of the blank nanoparticles (0.2-1 mg/mL), DOX-NPs,” for “of DOX-encapsulated SS or thioester NPs”, “of incubation with free DOX and DOX-NPs, and 48 h with blank nanoparticles,” for “of incubation,”, “Ltd., Männedorf,” for “Ltd., Mannedorf,”

In a further series the test system is NIH3T3 cells. As to the kind of experiment: Intracellular uptake and release by CLSM in NIH3T3 cells. The series is classed as cell-based, Mouse. As to conditions: 10 μg/mL DOX equivalents, 30 min to 4 h. Here is the method:
as §1

For series [4], the system named is HeLa cells. Description: Cellular uptake by CLSM in HeLa cells. The series is classed as cell-based. The procedure:
To observe the cellular uptake, HeLa cells (cancer cells) were seeded at a density of 1.0×10^5 cells/well in an 8-well chamber of a Lab-Tek II chamber slide and preincubated for 24 h at 37° C. and 5% CO2. […] The cells were then rinsed with PBS, stained with 10 μM Draq5 and fixed with 4% formaldehyde solution for 10 min. Cover glasses were then placed on glass slides. The cellular uptake of free DOX and DOX-NPs was imaged by CLSM at an excitation wavelength of 488 nm for DOX. To quantify cellular uptake, HeLa cells (5×10^5 cells/well) in 0.5 mL were grown on a 24-well plate at 37° C. in a humidified atmosphere of 5% CO2 for 24 h. Serum-free DMEM containing free DOX and DOX-NPs at equivalent doses (25 μg/mL) was added to the cells which were subsequently incubated for 2 h. The cells were then washed three times with PBS, harvested by trypsinization and transferred into Fluorescence Activated Cell Sorter (FACS) tubes. All samples were analyzed by flow cytometry (FACSCalibur, BD Biosciences, San Jose, Calif.) to determine cellular internalization. Fluorescence measurements of intracellular DOX were performed in the FL2 channel.

For series [5] the following is noted: in vivo; cited from earlier work.

`COc1cccc2c1C(=O)c1c(O)c3c(c(O)c1C2=O)C[C@@](O)(C(=O)CO)C[C@@H]3O[C@H]1C[C@H](N)[C@H](O)[C@H](C)O1` [free DOX, doxorubicin]: the “Location of red DOX fluorescent signal” value in the series with A549 cells [1] (30 min) is “entered the cellular nuclei”; with A549 cells [1] (2 h and 4 h), “strong red signal in the cellular nuclei”; with NIH3T3 cells, “red signal was observed in the cellular nuclei”. Moreover, the “Decrease of cell viability” value in the series on A549 cells [2] (1-50 μg/mL DOX, dose-dependent) is 5-82%. In the series on A549 cells [2] (all DOX concentrations), the “Cytotoxicity relative to DOX-encapsulated thioester-NPs” value is recorded as “significantly higher”. The Relative cytotoxicity entry in the series on HeLa cells [3] is “significantly higher cytotoxicity than DOX-encapsulated NPs”. Moreover, the figures for the “Red DOX fluorescent signal in cells” value in the series with HeLa cells [4] (2 h) and in the series with HeLa cells [4] (4 h) were “red fluorescent signal was observed” and “significant increases in the red signal”, respectively. In the series on HeLa cells [4] (4 h), the Cell morphology result is “cell shrinkage and blebbing”.
Regarding `CCCCCCCCCCCCCCCCCCN1C(=CC=CC=CC=CC2=[N+](CCCCCCCCCCCCCCCCCC)c3ccccc3C2(C)C)C(C)(C)c2ccccc21.[I-]` [free hydrophobic DiR, 1,1′-Dioctadecyl-3,3,3′,3′-tetramethylindotricarbocyanine iodide], the “Biodistribution of free dye” value in series [5] was “accumulated in liver from 1 h to 24 h with negligible tumor accumulation”.

Values taken from US9975983B2, “Bio-reducible self-assembled liquid crystalline block copolymer for drug delivery” (UNIVERSITY OF CONNECTICUT, priority 2014, dated 2018).
